Results on four compounds are retold here after US4937332A, “Cephalosporin derivatives” (Taisho Pharmaceutical Co., Ltd., priority 1987, dated 1990).

The subject of series [1] is Staphylococcus aureus K-1. The series can be described thus: Minimum inhibitory concentration, agar plate dilution method. In kind it is cell-based. How it is done:
(§1) The antibacterial activity against various bacteria was measured by the agar plate dilution method (inoculum size 10^6 cells/ml), and the results are shown in the following Table 1.

Series [2] has as its system Escherichia coli A13. The series is described as above. Format: cell-based. How it is done:
as §1

Series [3] concerns Escherichia coli NIJH JC-2. The description is as above. In kind it is cell-based. As to the method:
as §1

For series [4], the system named is Staphylococcus aureus 209P-JC. The description is as above. The following applies: read-out: Minimum Inhibitory Concentration. Format: cell-based. As to the method: as §1
The test system of series [5] is Morganella morganii IID 602. Described as above. Format: cell-based. How it is done:
as §1

Series [6] relates to Klebsiella pneumoniae T-25. The description is as above. Format: cell-based. How it is done: as §1
Series [7] can be described thus: in vivo. The following applies: rat, blood, 50 mg/kg in 5% gum arabic, male wister rats, bioassay. As to the method:
Three male wister rats (7 weeks old) for each group were administered orally with the test compounds, and the change of the concentration of the compound in blood was measured.
Dosage of the test compound:
50 mg/kg (suspended in 5% gum arabic)
Quantitative method: Bioasssay
(test bacterium: Escherichia coil SC507)

The mark [8] stands for this setting: Staphylococcus aureus, K1, read-out: Minimum Inhibitory Concentration.
The mark [9] stands for this setting: Escherichia coli, A13, read-out: Minimum Inhibitory Concentration.
[10] abbreviates: Escherichia coli, NIJHJC2, read-out: Minimum Inhibitory Concentration.
Setting [11] is: Morganella morganii, IID602, read-out: Minimum Inhibitory Concentration.
[12] abbreviates: Klebsiella pneumoniae, T25, read-out: Minimum Inhibitory Concentration.
Where [13] appears, read: Escherichia coli A13, inoculum size 10^6 cells/ml, read-out: Minimum Inhibitory Concentration.
Where [14] appears, read: NIJHJC2, Escherichia coli NIJH JC-2, inoculum size 10^6 cells/ml, read-out: Minimum Inhibitory Concentration.
The mark [15] stands for this setting: Staphylococcus aureus 209P-JC, inoculum size 10^6 cells/ml.
Setting [16] is: IID602, Morganella morganii IID 602, inoculum size 10^6 cells/ml, read-out: Minimum Inhibitory Concentration.
The mark [17] stands for this setting: T25, Klebsiella pneumoniae T-25, inoculum size 10^6 cells/ml, read-out: Minimum Inhibitory Concentration.

≈ marks a conversion by molar mass, not a printed value. Where a name gives a salt, the structure may show the parent alone. Read-outs that look alike come from different tables or passages of the source.

For `COC(=O)/C=C\SC1=C(C(=O)[O-])N2C(=O)[C@@H](NC(=O)/C(=N\O)c3csc(N)n3)[C@H]2SC1.[Na+]`, the MIC in series [1] (setting [8]) was 3.13 µg/mL; in series [2] (setting [9]), 6.25 µg/mL; in series [3] (setting [10]), at most 0.025 µg/mL; in series [4] (Staphylococcus aureus, 209P) it was 0.2 µg/mL; in series [5] (setting [11]), 0.05 µg/mL; in series [6] (setting [12]) it was 0.2 µg/mL. In series [7] (Four Hours after oral administration), this compound came in with a concentration at 4 h of 16900 ng/mL. Moreover, the concentration at 1 h in series [7] (One Hour after oral administration) is 11000 ng/mL. The compound also displayed a concentration at 2 h in series [7] (Two Hours after oral administration) of 14200 ng/mL.
With `COC(=O)/C=C\SC1=C(C(=O)O)N2C(=O)[C@@H](NC(=O)/C(=N\OCC(=O)O)c3csc(N)n3)[C@H]2SC1` [Test compound D], the MIC is over 100 µg/mL in series [2] (setting [13]); 0.05 µg/mL (≈ 0.092 µM) in series [3] (setting [14]); 6.25 µg/mL (≈ 11.5 µM) in series [4] (setting [15]); 0.25 µg/mL (≈ 0.46 µM) in series [5] (setting [16]); 0.39 µg/mL (≈ 0.717 µM) in series [6] (setting [17]).
`CC1=C(C(=O)O)N2C(=O)[C@@H](NC(=O)[C@H](N)c3ccccc3)[C@H]2SC1` [Test compound B, Cephalexin]: the MIC is over 100 µg/mL in series [1] (setting [8]); over 100 µg/mL in series [2] (setting [9]); 3.13 µg/mL (≈ 9.01 µM) in series [3] (setting [10]); 0.78 µg/mL (≈ 2.25 µM) in series [4] (Staphylococcus aureus, 209P); over 100 µg/mL in series [5] (setting [11]); 100 µg/mL (≈ 288 µM) in series [6] (setting [12]).
For the compound `C=CC1=C(C(=O)O)N2C(=O)[C@@H](NC(=O)/C(=N\OCC(=O)O)c3csc(N)n3)[C@H]2SC1` [Test compound C, Cefixime sodium salt], the MIC is over 100 µg/mL in series [1] (K1, Staphylococcus aureus K-1, inoculum size 10^6 cells/ml, read-out: Minimum Inhibitory Concentration); over 100 µg/mL in series [2] (setting [13]); 0.05 µg/mL in series [3] (setting [14]); 12.5 µg/mL in series [4] (setting [15]); 0.39 µg/mL in series [5] (setting [16]); 12.5 µg/mL in series [6] (setting [17]).
